The subject of assay [1] is diabetic rats exhibiting contrast-induced nephropathy. Nature of the assay: Contrast-induced nephropathy (CIN) model in streptozotocin-diabetic rats, contrast agent iomeprol. Type of assay: in vivo, Male Wistar rats. As for the experimental part:
Effect of Tetracyclic 1H-indeno[1,2-b]pyridine-2(5H)-one analogs on the prophylaxis of contrast induced nephropathy
Male Wistar rats (150-200 g; Harlan Nossanr) were housed in a controlled environment and provided with standard rodent chow and water.
After 12 h of fasting, the animals received a single 60 mg/kg intravenous (i.v.) injection of streptozotocin (Sigma, St. Louis, Mo.) in 10 mM sodium citrate buffer, pH 4.5 (see figure showing CIN model). Control non-diabetic animals were fasted and received citrate buffer alone. After 24 h, animals with blood glucose levels greater than 250 mg/dl were considered diabetic. All experiments were performed 10 days following the induction of diabetes. The diabetic state was evaluated daily by determination of the blood glucose levels. Upon the induction of the diabetic state the animals were presenting with a major risk factor pre-disposing the animals to CIN after the administration of contrast media.
10 days following the induction of diabetes the rats were anesthetized with 90 mg/kg ketamine i.m. and 10 mg/kg xylazine i.m. and were treated with the contrast agent iomeprol (10 mL/kg injected via the lateral tail vein) or with 0.9% normal saline. The contrast agent used was the low osmolar non-ionic monomer iomeprol (lomeron, 400 mgI mL−1; Bracco SpA, Milan, Italy) with an osmolality of 726±34 mosmol/kg H2O.
Upon completion of surgical procedures, the animals were randomly allocated to different groups.
At the indicated time point blood samples were collected via the lateral tail vein into S1/3 tubes containing serum gel. The samples were centrifuged (6000 r.p.m. for 3 min) to separate plasma. All plasma samples were analyzed for biochemical parameters within 24 hours after collection. Plasma urea, plasma and urine concentrations of creatinine were measured as indicators of impaired glomerular function. Plasma concentrations of NGAL (neutrophil gelatinase associated lipocalin) levels and urine αGST (alpha glutathione S-transferase)and NGAL levels were evaluated.
At postmortem, a […] section of kidney was removed and placed in formalin and processed through to wax. […] sections were cut and stained with hematoxylin and eosin. Histologic assessment of outer medulla damage was examined by an experienced morphologist, who was not aware of the sample identity. The criteria for injury/necrosis were the following: 0=normal histology; 1=minor edema, minor cell swelling; 2=haemorrhage, moderate edema, moderate cells vacuolization and swelling; 3=moderate haemorrhage, moderate edema, moderate cells vacuolization, swelling and chromatin alteration; 4=severe edema, severe cells vacuolization, swelling and chromatin alteration, presence of necrosis spot; 5=severe edema, severe cells vacuolization, swelling and chromatin alteration, severe necrosis.

In a further assay the target is T1, PARP (Mus musculus, UniProt P11103).
T1 construct: PARP Activity in Cultured Macrophages, Using a Whole-Cell Based Assay; endogenous in cells; host or cells: murine RAW macrophages (ATCC)
T1 sequence (P11103 whole entry): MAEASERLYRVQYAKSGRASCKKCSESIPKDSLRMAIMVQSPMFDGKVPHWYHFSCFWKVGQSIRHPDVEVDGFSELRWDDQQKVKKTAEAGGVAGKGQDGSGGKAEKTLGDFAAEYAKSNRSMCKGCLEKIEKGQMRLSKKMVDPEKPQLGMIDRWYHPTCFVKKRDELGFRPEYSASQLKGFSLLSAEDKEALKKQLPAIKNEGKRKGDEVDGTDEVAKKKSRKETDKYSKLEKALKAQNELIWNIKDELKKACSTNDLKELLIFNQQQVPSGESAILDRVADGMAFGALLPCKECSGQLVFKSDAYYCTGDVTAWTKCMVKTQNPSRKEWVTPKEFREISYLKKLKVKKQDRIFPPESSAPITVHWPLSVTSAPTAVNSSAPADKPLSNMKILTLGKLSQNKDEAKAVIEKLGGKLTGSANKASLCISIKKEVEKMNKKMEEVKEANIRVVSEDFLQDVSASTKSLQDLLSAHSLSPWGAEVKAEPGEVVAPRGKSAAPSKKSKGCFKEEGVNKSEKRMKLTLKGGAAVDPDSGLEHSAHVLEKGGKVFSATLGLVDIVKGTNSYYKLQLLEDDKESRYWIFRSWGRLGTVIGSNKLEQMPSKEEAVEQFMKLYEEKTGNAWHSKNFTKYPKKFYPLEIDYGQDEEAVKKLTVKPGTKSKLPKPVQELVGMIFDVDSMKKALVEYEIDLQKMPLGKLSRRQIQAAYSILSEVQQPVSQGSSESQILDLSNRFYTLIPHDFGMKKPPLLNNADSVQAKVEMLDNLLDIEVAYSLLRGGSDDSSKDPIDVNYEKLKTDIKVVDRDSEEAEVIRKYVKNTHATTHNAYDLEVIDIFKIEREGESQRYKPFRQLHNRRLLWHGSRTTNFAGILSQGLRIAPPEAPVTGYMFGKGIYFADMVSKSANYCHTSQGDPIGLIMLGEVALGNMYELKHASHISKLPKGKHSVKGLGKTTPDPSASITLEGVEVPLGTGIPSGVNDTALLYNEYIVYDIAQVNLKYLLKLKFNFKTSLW
Nature of the assay: PARP activity in cultured macrophages, whole-cell based assay (3H-NAD+ incorporation after hydrogen peroxide). Particulars: murine RAW macrophages, 1 hour pretreatment, hydrogen peroxide 0.5 mM. The method, then:
Effect of Tetracyclic 1H-indeno[1,2-b]pyridine-2(511)-one Analogs on PARP Activity in Cultured Macrophages, Using a Whole-Cell Based Assay
The murine RAW macrophages (ATCC, American Type Culture Collection, Manassas, Va.) were grown in […] (Invitrogen Life Technologies; Carlsbad, Calif.) medium supplemented with 10% heat-inactivated FBS, 2 mM L-glutamine, and 100 U/ml of penicillin and streptomycin. Cells, between passages 5 and 15, were seeded at a density of 250,000 cells/well in 12 well plates and allowed to grow 48 hours before use. Growth medium was changed on the day of use. Cells were treated with a tetracyclic 1H-indeno[1,2-b]pyridine-2(5H)-one analog diluted in a growth medium supplemented with 10% fetal bovine serum (FBS) for 1 hour prior to the addition of hydrogen peroxide (0.5 mM) for a further 25 minutes. For the measurement of PARP activity, media was removed and replaced with 0.5 ml of the assay buffer (56 mM HEPES-pH 7.5, 28 mM KCl, 28 mM NaCl, 2 mM MgCl2, 0.01% digitonin, and 0.5 μCi/ml of ^3H-NAD^+) for 20 minutes. After aspirating the assay buffer, cells were lysed and transferred to eppendorf tubes containing 250 μl of 50% ice-cold trichloroacetic acid (TCA), which were then placed at 4° C. for 4 hours. Samples were centrifuged at 10,000 g for 10 minutes and supernatant removed. The pellets were washed twice with 500 μl of ice-cold 5% w/v TCA. The pellets were then solubilized in 250 μl of NaOH (0.1 M) containing 2% SDS overnight at 37° C. and the PARP activity was then determined by measuring the radioactivity incorporated using a Wallac scintillation counter. The solubilized protein (250 μl) was mixed with 5 ml of scintillation fluid (ScintiSafe Plus, Fisher Scientific) before being counted for 3 minutes. EC50 values were determined from a dose-response curve.

Another assay has as its target T2, PARP-1 enzyme (Homo sapiens, UniProt P09874).
T2 construct: purchased Trevigen, Gaithersburg, Md
Description: Purified PARP-1 enzyme inhibition assay (Trevigen kit, 96 well ELISA plates). Type of assay: biochemical. As for the experimental part:
Effect of Tetracyclic 1H-indeno[1,2-b]pyridine-2(5H)-one analogs on PARP Activity in purified PARP-1 enzyme assay
The potency of inhibition on purified PARP-1 enzyme was subsequently determined for selected compounds, and the potency was compared with INO-1001. The assay was performed in 96 well ELISA plates according to instructions provided with a commercially available PARP-1 inhibition assay kit (Trevigen, Gaithersburg, Md.). Briefly, wells were coated with 1 mg/ml histone (50 μl/well) at 4° C. overnight. Plates were then washed four times with PBS and then blocked by adding 50 μl Strep-Diluent (supplied with the kit). After incubation (1 h, 25° C.), the plates were washed four times with PBS. Appropriate dilutions of compound was combined with 2×PARP cocktail (1.95 mM NAD^+, 50 μM biotinylated NAD^+ in 50 mM TRIS pH 8.0, 25 mM MgCl2) and high specific activity PARP enzyme (both were supplied with the kit) in a volume of 50 μl. The reaction was allowed to proceed for 30 min at room temperature. After 4 washes in PBS, incorporated biotin was detected by peroxidase-conjugated streptavidin (1:500 dilution) and TACS Sapphire substrate. EC50 and IC50 values were determined from a dose-response curve.

Counter-ions that a name gives are not always drawn.

T2 sequence (P09874 whole entry): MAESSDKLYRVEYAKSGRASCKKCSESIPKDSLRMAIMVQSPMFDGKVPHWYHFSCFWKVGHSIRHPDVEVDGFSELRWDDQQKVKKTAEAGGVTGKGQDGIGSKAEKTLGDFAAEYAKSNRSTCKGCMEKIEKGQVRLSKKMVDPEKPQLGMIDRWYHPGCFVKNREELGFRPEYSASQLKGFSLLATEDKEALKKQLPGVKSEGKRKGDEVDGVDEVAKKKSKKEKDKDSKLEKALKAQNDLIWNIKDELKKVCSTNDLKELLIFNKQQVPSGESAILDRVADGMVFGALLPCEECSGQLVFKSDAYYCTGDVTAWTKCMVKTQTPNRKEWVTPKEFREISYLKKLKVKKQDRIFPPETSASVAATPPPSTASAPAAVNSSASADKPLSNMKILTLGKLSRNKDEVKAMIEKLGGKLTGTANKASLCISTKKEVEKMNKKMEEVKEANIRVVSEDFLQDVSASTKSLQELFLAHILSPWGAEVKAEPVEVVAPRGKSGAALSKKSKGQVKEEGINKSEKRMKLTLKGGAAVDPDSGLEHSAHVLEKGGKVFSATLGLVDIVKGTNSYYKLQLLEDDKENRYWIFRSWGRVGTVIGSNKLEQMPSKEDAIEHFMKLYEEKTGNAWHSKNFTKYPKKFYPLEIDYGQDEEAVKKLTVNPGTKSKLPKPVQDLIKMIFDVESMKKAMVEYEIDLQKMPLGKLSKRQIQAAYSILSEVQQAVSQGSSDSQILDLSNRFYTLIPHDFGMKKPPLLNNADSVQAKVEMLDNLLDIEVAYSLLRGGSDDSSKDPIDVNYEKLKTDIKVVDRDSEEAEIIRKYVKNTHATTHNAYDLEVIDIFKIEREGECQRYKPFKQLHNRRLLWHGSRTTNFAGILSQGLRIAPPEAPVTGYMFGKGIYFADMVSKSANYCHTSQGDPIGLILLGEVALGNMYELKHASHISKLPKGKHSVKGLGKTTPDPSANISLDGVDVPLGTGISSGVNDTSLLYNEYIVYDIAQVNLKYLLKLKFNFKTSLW

Turning to `O=c1[nH]c2c(c3c1CCCC3)Cc1c(CN3CC[C@H](F)C3)cccc1-2` [Example 17, (S)-10-((3-fluoropyrrolidin-1-yl)methyl)-3,4,6,11-tetrahydro-1H-indeno[1,2-c]isoquinolin-5(2H)-one mesylate], the kidney histological scores entry in assay [1] (outer medulla damage score 0-5, FIG. 4) is given as “reduced”. Further, the “level of plasma creatinine” value in assay [1] (relative to contrast agent alone, FIG. 1) is given as “reduces”. Further, the “level of plasma NGAL” value in assay [1] (relative to contrast agent alone, FIG. 2) is reported as “reduces”. In addition, the “level of urine NGAL” value in assay [1] (relative to contrast agent alone, FIG. 3) is “reduces”. Also, in assay [1] (relative to contrast agent alone, FIG. 5), the “level of urine GST” value is “reduces”.
Consider `COCCN1CCN(c2cccc3c2Cc2c-3[nH]c(=O)c3cccnc23)CC1` [Example 49, 10-(4-(2-methoxyethyl)piperazin-1-yl)-6,11-dihydro-5H-indeno[1,2-h][1,6]naphthyridin-5-one], for which the EC50 at PARP was 22.7 nM. For the same compound, on PARP-1 enzyme, it took 55.7 nM to reach half-maximal inhibition (IC50).
For `O=c1[nH]c2c(c3c1CCCC3)Cc1c(CNC3(CO)CCCC3)cccc1-2` [Example 50, 10-((1-(hydroxymethyl)cyclopentylamino)methyl)-3,4,6,11-tetrahydro-1H-indeno[1,2-c]isoquinolin-5(2H)-one], the half-maximal effective concentration (EC50) on PARP amounted to 5 nM. For the same compound, half-maximal inhibition on PARP-1 enzyme (IC50) was put at 6.3 nM.
`CC(C)(O)C(=O)Nc1cccc2c1Cc1c-2[nH]c(=O)c2c1CCCC2` [Example 51, 2-hydroxy-2-methyl-N-(5-oxo-2,3,4,5,6,11-hexahydro-1H-indeno[1,2-c]isoquinolin-10-yl)propanamide]: the EC50 at PARP stood at 59 nM. The IC50 against PARP-1 enzyme is above 250 nM.
`CSCCC(=O)Nc1cccc2c1Cc1c-2[nH]c(=O)c2c1CCCC2` [Example 52, 3-(methylthio)-N-(5-oxo-2,3,4,5,6,11-hexahydro-1H-indeno[1,2-c]isoquinolin-10-yl)propanamide]: the EC50 on PARP was found to be 55 nM. Also, the IC50 on PARP-1 enzyme came to 73.6 nM.
For `C[S+]([O-])CCC(=O)Nc1cccc2c1Cc1c-2[nH]c(=O)c2c1CCCC2` (stereo not shown) [Example 53, 3-(methylsulfinyl)-N-(5-oxo-2,3,4,5,6,11-hexahydro-1H-indeno[1,2-c]isoquinolin-10-yl)propanamide] the same measures were 6 nM and 89.8 nM.
With `O=c1[nH]c2c(c3sccc13)Cc1c(CNC3CCCC3)cccc1-2` [Example 55, 9-((cyclopentylamino)methyl)-5,10-dihydro-4H-indeno[1,2-b]thieno[2,3-d]pyridin-4-one], at PARP, the EC50 came out at 34 nM. Further, at PARP-1 enzyme, the half-inhibitory concentration (IC50) is 41.2 nM.
For `CN1CCN(c2cccc3c2Cc2c-3[nH]c(=O)c3cccnc23)CC1` [Example 56, 10-(4-methylpiperazin-1-yl)-6,11-dihydro-5H-indeno[1,2-d][1,6]naphthyridin-5-one] the same measures were 9 nM and 19.9 nM.
For `CCCCN1CCN(c2cccc3c2Cc2c-3[nH]c(=O)c3cccnc23)CC1` [Example 58, 10-(4-butylpiperazin-1-yl)-6,11-dihydro-5H-indeno[1,2-h][1,6]naphthyridin-5-one] the same measures were 6.1 nM and 25.5 nM.
`CCN1CCN(c2cccc3c2Cc2c-3[nH]c(=O)c3cccnc23)CC1` [Example 59, 10-(4-ethylpiperazin-1-yl)-6,11-dihydro-5H-indeno[1,2-h][1,6]naphthyridin-5-one]: on PARP, the EC50 worked out at 2.4 nM. On PARP-1 enzyme, this compound registered an IC50 of 12.4 nM.
As to `CC(C)N1CCN(c2cccc3c2Cc2c-3[nH]c(=O)c3cccnc23)CC1` [Example 60, 10-(4-isopropylpiperazin-1-yl)-6,11-dihydro-5,1-indeno[1,2-h][1,6]naphthyridin-5-one], the EC50 on PARP worked out at 37 nM. Besides, inhibition against PARP-1 enzyme was half-maximal at 19.2 nM (IC50).
Regarding `O=c1[nH]c2c(c3ncccc13)Cc1c-2cccc1N1CCN(CC2CC2)CC1` [Example 61, 10-(4-(cyclopropylmethyl)piperazin-1-yl)-6,11-dihydro-5H-indeno[1,2-h][1,6]naphthyridin-5-one], the EC50 on PARP came out at 46 nM. This compound came in with a concentration for half-maximal inhibition (IC50) at PARP-1 enzyme of 27.9 nM.
The corresponding values for `O=c1[nH]c2c(c3ncccc13)Cc1c(CNC3CCCC3)cccc1-2` [Example 62, 10-((cyclopentylamino)methyl)-6,11-dihydro-5H-indeno[1,2-h][1,6]naphthyridin-5-one] are 13 nM and 28.1 nM.
The corresponding values for `O=c1[nH]c2c(c3c1CCCC3)Cc1c(CN3CC=CCC3)cccc1-2` [Example 69, 10-((5,6-dihydropyridin-1(2H)-yl)methyl)-3,4,6,11-tetrahydro-1H-indeno[1,2-c]isoquinolin-5(2H)-one] are 18.4 nM and 54.7 nM.

A word on the EC50: it is the concentration giving half of the maximal effect. Usually IC50 stands for the concentration at which inhibition is half-maximal. Read a high IC50 as weaker potency.

The values above are taken from patent US20100261706A1, “SUBSTITUTED TETRACYCLIC 1H-INDENO [1,2-B]PYRIDINE-2(5H)-ONE ANALOGS THEREOF AND USES THEREOF” (INOTEK PHARMACEUTICALS CORPORATION, priority 2008, published 2010).
